US10238113B2, “Method for protecting plants from stress and senescence” (BEN-GURION UNIVERSITY OF THE NEGEV RESEARCH AND DEVELOPMENT …, priority 2008, dated 2019)

How the values were obtained:
Col wild type plants = experiment: Xanthine determination in allopurinol-treated leaves/leaf discs during dark stress; type: in vivo, Arabidopsis thaliana; conditions: allopurinol applied to wild type plants
Description: (§1) FIG. 8a: xanthine (1 mM) in the presence or absence of allopurinol (1 mM, +/−Allo), was applied for 48 h to leaf discs placed in the dark and photographed 24 h after being transferred to 16 h light/8 h dark regime (left upper panel). Remaining chlorophyll, xanthine, allantoin and allantoate were determined in leaf discs sampled at the beginning of the experiment (light) or after 72 h (as described above) without xanthine (dark). FIG. 8b: allantoin or allantoate (0.1 mM) in the presence or absence of allopurinol (1 mm, +/−Allo) was applied to leaf discs for 2 h in the dark after keeping the discs in the dark for 48 h. Discs were photographed 24 h after being transferred to 16 h light/8 h dark regime (left upper panel). Leaf discs were washed twice before sampling for xanthine, allantoin and allantoate determination (right and bottom panels). Bars show mean±SEM (n=16).
Ureides were extracted from leaves with 80% ethanol and determined according to Vogels G. D. and Van Der Drift C. (1970 Anal Biochem 33, 143-157) using allantoic acid and allantoin as references. Six samples were analyzed and averaged for each data points. […] Hypoxanthine/xanthine were determined by high performance liquid chromatography (HPLC) using a 100×2.1 mm ID, ODS-Hypersil (5 μm) column. […] The hypoxanthine and xanthine were detected using standards retention time and UV absorption spectra ratio at 249 nm and 267 nm. […]

[1] = tested on: leaf discs cut from Col and Atxdh mutants rosette leaves; experiment: Leaf discs treated with purine catabolites under dark-induced stress, remaining chlorophyll; type: in vivo, Arabidopsis thaliana; conditions: for protection from chlorophyll degradation: 0.1 mM, applied 2 h after 48 h dark treatment, +/- allopurinol, Col and Atxdh mutants
Description: as §1
Cell death was visualized in leaves sampled from dark stressed and control unstressed plants, by lactophenol-trypan blue staining followed by destaining in saturated chloral hydrate (Koch E. and Slusarenko A. 1990 Plant Cell 2, 437-445). Total chlorophyll content was measured in extracts of the fully expanded leaves as described before (Brychkova et al., 2007, ibid). The values for remaining chlorophyll content in leaf discs were determined as the amount of chlorophyll per disc divided by the amount of chlorophyll per untreated control and expressed as a percentage. The severity of leaf damage after dark stress was as follows: 1, no damage; 2, <30%; 3, 30-50%; 4, >50% of the leaf area damaged. The average leaf damage was then multiplied by the total number of damaged leaves to determine the damage level. Means±SEM for each treatment are presented.
The dark-induced loss of chlorophyll and the accelerated cell death during recovery may be due to the accumulation of excess oxypurines (FIG. 5a) or to the lack of a protective environment provided by ureides (FIGS. 5b and 5c) or both. To examine this directly, leaf discs cut from Col and Atxdh mutants rosette leaves were treated with xanthine for 48 h in the dark and were sampled after 24 h in the light. […] The observations indicate that ureides may protect chlorophyll from degradation during dark treatment and the recovery period. To elucidate the role of allantoin and allantoate directly, leaf discs were treated with 0.1 mM allantoin or allantoate. […] Importantly, the protection by the ureides was afforded in spite of the significant accumulation of xanthine in allopurinol-treated Col plants and Atxdh mutants (FIG. 8b).

[2] = tested on: leaf discs of Col and Ri plants; experiment: DAB-H2O2 staining of leaf discs treated with allantoin or allantoate; type: in vivo, Arabidopsis thaliana; conditions: 0.1 mM for 2 h after 24 h dark
Description: (§2) FIGS. 9a-9c show reactive oxygen species (ROS) accumulation in the presence of allantoin and allantoate in Arabidopsis wild-type (Col) and xdh1 RNA interference (Ri) lines. FIG. 9a left panel: leaf discs removed from Col plants placed for 24 h in the dark in the presence or absence of allantoin or allantoate (0.1 mM) and then washed and treated with H2O2 (0, 20, 50 mM) for an additional 6 h in the dark. Right panel: remaining chlorophyll determined 24 h after the disc were transferred to a 16 h light/8 h dark regime. Bars show mean±SEM (n=16). […] Total H2O2 relative production (right insert) was quantified in leave discs kept in the dark for 24 h and then treated with allantoin or allantoate for additional 2 h in the dark, using DAB staining Results are from two independent experiments. Error bars indicate SE (n=16). The lower case letters (a, b) indicate P<0.001 for the differences within treatment between ecotypes. […] Leaf discs were treated and analyzed as in FIG. 9b above. Total relative superoxide production was quantified in leaf discs from 2 independent experiments. […]
(§3) Nitroblue tetrazolium (NBT) O2^− staining of leaves was performed essentially according to Jabs T. et al. (1996 Science 273, 1853-1856) and Fryer M. J. et al. (2002 J Exp Bot 53, 1249-1254). […] NBT and DAB stained leaves and leaf discs were quantified using NIH Image Software (Version 1.6). […]

[3] = tested on: leaf discs of Col and Ri plants; experiment: NBT-O2- staining of leaf discs treated with allantoin or allantoate; type: in vivo, Arabidopsis thaliana; conditions: 0.1 mM for 2 h after 24 h dark; Col lines
Description: as §2, §3

Parsley leaf discs = experiment: Allantoin application on senescence in parsley leaf discs exposed to dark stress, chlorophyll content; type: in vivo
Description: FIG. 14 relates to the influence of allantoin application on senescence in parsley leaf discs exposed to dark stress. Parsley leaf discs were kept for 2 days in the light and then transferred to the dark for additional 2 days with or without the addition of 0 to 10 mM allantoin. CL—control undetached leaves in the light.
Reference is also made to FIG. 14 showing that allantoin application prevents leaf spoilage in Parsley. Parsley leaf discs were kept for 2 days in the light and then for 2 days in the dark with or without the addition of 0 to 10 mM allantoin. Undetached leaves kept in the light served as control (CL). The influence of allantoin application on senescence in parsley was examined by measuring the chlorophyll content relative to the content in the control undeteched leaves.

tomato leaf discs = experiment: Allantoin application to tomato leaf discs, chlorophyll degradation; type: in vivo; conditions: 0.1 mM and 0.5 mM allantoin; discs 2 days dark then 2 days light

| Compound | reduction in DAB staining intensity (H2O2) [2] [fold] | protection from chlorophyll degradation [1] | NBT staining (superoxide) [3] | also measured |
| --- | --- | --- | --- | --- |
| Oc1ncnc2[nH]ncc12 [allopurinol, reference compound] | – | – | – | xanthine accumulation (Col wild type plants): led to xanthine accumulation; effect on xanthine-caused reduction in chlorophyll ([1]; allopurinol 1 mM in the presence of 1 mM xanthine, wild type and mutant Ri lines): exacerbated |
| NC(=O)NC(NC(N)=O)C(=O)O [allantoate] | 2 | protected the treated leaf discs from chlorophyll degradation | significantly reduced staining | – |
| NC(=O)NC1NC(=O)NC1=O (stereo not drawn) [allantoin] | 2 | protected the treated leaf discs from chlorophyll degradation | significantly reduced staining | prevention of chlorophyll loss (chlorophyll content relative to control undetached leaves) (Parsley leaf discs; 0.1-0.5 mM allantoin, 2 days light then 2 days dark): particularly effective in preventing the chlorophyll loss; protection of leaves from chlorophyll degradation and yellowing (Parsley leaf discs; 0.1-10 mM allantoin, summary of parsley and tomato leaf disc results): protects leaves from chlorophyll degradation and yellowing; chlorophyll degradation (tomato leaf discs): delayed the chlorophyll degradation |
| O=c1[nH]c(=O)c2[nH]cnc2[nH]1 [xanthine] | – | – | – | effect on chlorophyll ([1]; 1 mM xanthine, 48 h in the dark, sampled after 24 h in the light, Col and Ri leaf discs): caused a reduction in chlorophyll |
